According to patent publication US5120726A, “Rapamycin hydrazones” (American Home Products Corporation, priority 1991, dated 1992):
Like-named read-outs stand apart in the source and are kept apart here.

Assays:
[1] = tested on: cells from the thymus of normal BALB/c mice (lymphocyte proliferation); assay: comitogen-induced thymocyte proliferation procedure (LAF), lymphocyte proliferation; assay type: cell-based; conditions: for IC50: Mus musculus, Lymphocyte, read-out: LAF IC50; for LAF (ratio): ratio vs rapamycin
Protocol: (§1) Immunosuppressive activity was evaluated in an in vitro standard pharmacological test procedure to measure lymphocyte proliferation (LAF) and in two in vivo standard pharmacological test procedures. The first in vivo procedure was a popliteal lymph node (PLN) test procedure which measured the effect of compounds of this invention on a mixed lymphocyte reaction and the second in vivo procedure evaluated the survival time of a pinch skin graft.
Briefly, cells from the thymus of normal BALB/c mice are cultured for 72 hours with PHA and IL-1 and pulsed with tritiated thymidine during the last six hours. […] Cells are harvested and incorporated radioactivity is determined. Inhibition of lymphoproliferation is assessed as percent change in counts per minute from non-drug treated controls. The results are expressed by the following ratio, or as the percent inhibition of lymphoproliferation at 1 μM. [formula]

[2] = tested on: mixed lymphocyte reaction (popliteal lymph node); assay: popliteal lymph node (PLN) test procedure, effect on a mixed lymphocyte reaction; assay type: in vivo, C3H mice (BALB/c donors); conditions: ratio vs rapamycin; p.o. daily Day 0 to Day 4
Protocol: as §1
A mixed lymphocyte reaction (MLR) occurs when lymphoid cells from genetically distinct animals are combined in tissue culture. Each stimulates the other to undergo blast transformation which results in increased DNA synthesis that can be quantified by the incorporation of tritiated thymidine. Since stimulating a MLR is a function of disparity at Major Histocompatibility antigens, an in vivo popliteal lymph node (PLN) test procedure closely correlates to host vs. graft disease. Briefly, irradiated spleen cells from BALB/c donors are injected into the right hind foot pad of recipient C3H mice. The drug is given daily, p.o. from Day 0 to Day 4. On Day 3 and Day 4, tritiated thymidine is given i.p., b.i.d. On Day 5, the hind popliteal lymph nodes are removed and dissolved, and radioactivity counted. […] Percent suppression is calculated using the non-drug treated animals as allogenic control. […]

[3] = tested on: pinch skin graft from male DBA/2 donors transplanted to male BALB/c recipients; assay: survival time of pinch skin graft; assay type: in vivo; conditions: intraperitoneally; mean ± S.D.
Protocol: as §1
The second in vivo test procedure is designed to determine the survival time of pinch skin graft from male DBA/2 donors transplanted to male BALB/c recipients. The method is adapted from Billingham R. E. and Medawar P. B., J. Exp. Biol. 28:385-402, (1951). Briefly, a pinch skin graft from the donor is grafted on the dorsum of the recipient as a homograft, and an autograft is used as control in the same region. […] Untreated recipients serve as rejection control. The graft is monitored daily and observations are recorded until the graft becomes dry and forms a blackened scab. This is considered as the rejection day. The mean graft survival time (number of days±S.D.) of the drug treatment group is compared with the control group.

adjuvant arthritis = conditions: in vivo; cited from earlier work
[4] = tested on: organ grafts in histoincompatible rodents; conditions: cited from earlier work
T-cell activation = conditions: cited from earlier work
Candida albicans = conditions: both in vitro and in vivo; cited from earlier work
[5] = thymocytes cultured 72 hours with PHA and IL-1, tritiated thymidine last six hours

Structure (SMILES): CO[C@H]1C[C@@H]2CC[C@@H](C)[C@@](O)(O2)C(=O)C(=O)N2CCCC[C@H]2C(=O)O[C@H]([C@H](C)C[C@@H]2CC[C@@H](O)[C@H](OC)C2)CC(=NNC(N)=O)[C@H](C)/C=C(\C)[C@@H](O)[C@@H](OC)C(=O)[C@H](C)C[C@H](C)/C=C/C=C/C=C/1C [Example 4, Rapamycin 27-semicarbazone]
- IC50 [1, 5]: 37.2 nM
- LAF (ratio) [1, 5]: 0.24
- PLN (ratio) [2]: 1.07

Structure (SMILES): CO[C@H]1C[C@@H]2CC[C@@H](C)[C@@](O)(O2)C(=O)C(=O)N2CCCC[C@H]2C(=O)O[C@H]([C@H](C)C[C@@H]2CC[C@@H](O)[C@H](OC)C2)CC(=NNc2ccccn2)[C@H](C)/C=C(\C)[C@@H](O)[C@@H](OC)C(=O)[C@H](C)C[C@H](C)/C=C/C=C/C=C/1C [Example 3, Rapamycin 27-(2-Pyridinylhydrazone)]
- IC50 [1, 5]: 15.9 nM
- LAF (ratio) [1, 5]: 0.55

Structure (SMILES): CO[C@H]1C[C@@H]2CC[C@@H](C)[C@@](O)(O2)C(=O)C(=O)N2CCCC[C@H]2C(=O)O[C@H]([C@H](C)C[C@@H]2CC[C@@H](O)[C@H](OC)C2)CC(=NNC(C)=O)[C@H](C)/C=C(\C)[C@@H](O)[C@@H](OC)C(=O)[C@H](C)C[C@H](C)/C=C/C=C/C=C/1C [Example 1, Rapamycin 27-(methylcarbonyl hydrazone)]
- Skin Graft survival time (days + SD) [3]: 10.50 ± 0.6 days
- IC50 [1, 5]: 17.3 nM
- LAF (ratio) [1, 5]: 0.50

Structure (SMILES): CO[C@H]1C[C@@H]2CC[C@@H](C)[C@@](O)(O2)C(=O)C(=O)N2CCCC[C@H]2C(=O)O[C@H]([C@H](C)C[C@@H]2CC[C@@H](O)[C@H](OC)C2)CC(=NNC(=O)Nc2ccccc2)[C@H](C)/C=C(\C)[C@@H](O)[C@@H](OC)C(=O)[C@H](C)C[C@H](C)/C=C/C=C/C=C/1C [Example 2, Rapamycin 27-(4-Phenylsemicarbazone)]
- Skin Graft survival time (days + SD) [3]: 7.83 ± 1.3 days
- IC50 [1, 5]: 19.2 nM
- LAF (ratio) [1, 5]: 0.45

Structure (SMILES): CO[C@H]1C[C@@H]2CC[C@@H](C)[C@@](O)(O2)C(=O)C(=O)N2CCCC[C@H]2C(=O)O[C@H]([C@H](C)C[C@@H]2CC[C@@H](O)[C@H](OC)C2)CC(=O)[C@H](C)/C=C(\C)[C@@H](O)[C@@H](OC)C(=O)[C@H](C)C[C@H](C)/C=C/C=C/C=C/1C [Rapamycin]
- effect in adjuvant arthritis model (adjuvant arthritis): effective
- Skin Graft survival time (days + SD) [3]: 12.0 ± 1.7 days
- survival time of organ grafts [4]: prolong survival time of organ grafts in histoincompatible rodents
- IC50 [1]: 8.5 to 8.8 nM
- inhibition of T-cell activation (T-cell activation): inhibit T-cell activation
- PLN (ratio) [2]: 1
- antifungal activity (Candida albicans): antifungal activity, particularly against Candida albicans, both in vitro and in vivo
